The conditions of data set [1]: cited from earlier work.
Data set [2] is described as follows: crystal suspensions of microcrystalline everolimus in different solvent mixtures (Example 6). It counts as physicochemical. The settings on record: 770 mg trioctanoylglycerol per 100 mL. Details: key: +++: good; +/−: average; −−−: poor. The procedure: To prepare the solutions, 770 mg of trioctanoylglycerol was dissolved in the polar solvent. Then the nonpolar solvent was added. It was then homogenized and filtered.
To test whether crystal suspensions could be prepared, 10 mL of each of the solutions was carefully added to 200 mg of everolimus in the form of microcrystals at room temperature. After combining, it was tested whether stable crystal suspensions were obtained.

Where [3] appears, read: nonpolar organic solvents, rounded values (Table 4).
Where [4] appears, read: polar organic solvents, rounded values (Table 6).
Where [5] appears, read: non-solvents, rounded values (Table 2).
Where [6] appears, read: nonpolar organic solvents (Table 8).
Where [7] appears, read: polar organic solvents (Table 7).

Where two headings read alike, the source gives them in different places.

Regarding `CC(C)Cc1ccccc1` [iso-butylbenzene], in data set [1] (setting [3]), the logKOW is given as 4.1.

With `CCCOC(C)=O` [n-Propyl acetate], in data set [1] (setting [4]), the logKOW result was “+1.4”.

Turning to `CCCCCCCCCC` [Decan], the logKOW in data set [1] (setting [5]) is recorded as 6.3; in data set [1] (setting [6]), 6.25.

As to `C1CCOC1` [Tetrahydrofuran (THF), Tetrahydrofuran], the values for the logKOW in data set [1] (setting [7]) and in data set [1] (setting [4]) were 0.46 and “+0.5”, respectively.

As for `CCCCCCCCC` [Nonan], the logKOW is reported as 5.7 in data set [1] (setting [5]) and 5.65 in data set [1] (setting [6]).

Regarding `O` [Water], the logKOW entry in data set [1] (polar organic solvents, rounded orientation values (Table 5)) was “approx. −1.4”.

As to `CCCC(C)C` [2-Methylpentane], the logKOW in data set [1] (setting [5]) is on record as 3.6.

`COC(C)=O` [Methyl acetate]: the logKOW entry in data set [1] (setting [4]) is “+0.2”.

For the compound `CCC(C)C` [Isopentane], the logKOW in data set [1] (setting [5]) is 3.2.

With `COc1ccccc1` [Anisol], in data set [1] (setting [3]), the logKOW is 2.1.

Consider `CCC(=O)O` [Propionic acid], for which the logKOW in data set [1] (setting [7]) was 0.32.

For `CCC(C)c1ccccc1` (stereo not shown) [2-Phenylbutane], in data set [1] (setting [3]), the logKOW is 3.4.

Consider `CCOC(C)=O` [Ethyl acetate], for which the logKOW is given as 0.73 in data set [1] (setting [7]) and “+0.7” in data set [1] (setting [4]).

In the case of `CCCCC(C)C` [2-Methylhexane], in data set [1] (setting [5]), the logKOW is recorded as 3.7.

Take `CCc1ccccc1` [Ethylbenzene]: the logKOW in data set [1] (setting [3]) was 3.2.

For `OCC(O)CO` [Glycerin], the logKOW in data set [1] (setting [4]) is −1.8.

For the compound `CC1CCCC1` [Methylcyclopentane], in data set [1] (setting [5]), the logKOW was 3.4.

Take `CC(C)(C)C1CCCCC1` [tert-butylcyclohexane]: in data set [1] (setting [5]), the logKOW is listed as 4.0.

On to `CCCCCCCC` [Octane], for which the logKOW is 5.2 in data set [1] (setting [5]) and 5.15 in data set [1] (setting [6]).

Regarding `CCCCCCC` [Heptane], the logKOW is listed as 4.5 in data set [1] (setting [5]) and 4.50 in data set [1] (setting [6]).

With `FC(F)(F)C(F)(F)C(F)(F)C(F)(F)C(F)(F)C(F)(F)F` [Tetradecafluorohexane], the logKOW in data set [1] (setting [3]) is given as 5.8.

`CCC(C)C(C)C` (stereo not shown) [2,3-Dimethylpentane]: the logKOW in data set [1] (setting [5]) is given as 3.8.

In the case of `CCCOCCC` [Dipropyl ether], in data set [1] (setting [4]), the logKOW entry is “+2.0”.

For the compound `CC(C)CC(C)(C)C` [2,2,4-Trimethylpentane], the logKOW in data set [1] (setting [5]) is listed as 4.1.

On to `CCC(C)(C)C` [2,2-Dimethylbutane], for which the logKOW in data set [1] (setting [5]) is reported as 3.8.

For the compound `CCOc1ccccc1` [Ethoxybenzene], in data set [1] (setting [3]), the logKOW was 2.5.

Consider `CC(C)Cc1ccccc1` [2-Methyl-1-phenylpropane], for which, in data set [1] (setting [3]), the logKOW is listed as 3.4.

Take `C1CCCCCC1` [Cycloheptane]: in data set [1] (setting [5]), the logKOW is given as 4.

As for `C1CCCC1` [Cyclopentane], the values for the logKOW in data set [1] (setting [5]) and in data set [1] (setting [6]) were 3.0 and 3.00, respectively.

Take `C1CCCCCCCCC1` [Cyclodecane]: the logKOW in data set [1] (setting [5]) was 5.5.

As for `C1CCCCCCCC1` [Cyclononan], the logKOW in data set [1] (setting [5]) is 5.1.

On to `CCCC(C)=O` [Solution 2-Pentanone, 2-Pentanone], for which the logKOW is reported as 0.84 in data set [1] (setting [7]) and “+0.9” in data set [1] (setting [4]).

Consider `C1COCCO1` [1,4-Dioxane], for which the “log KOW” value in data set [1] is given as “about −0.4”.

For `CO[C@H]1C[C@@H]2CC[C@@H](C)[C@@](O)(O2)C(=O)C(=O)N2CCCC[C@H]2C(=O)O[C@H]([C@H](C)C[C@@H]2CC[C@@H](OCCO)[C@H](OC)C2)CC(=O)[C@H](C)/C=C(\C)[C@@H](O)[C@@H](OC)C(=O)[C@H](C)C[C@H](C)/C=C/C=C/C=C/1C` [Everolimus, 40-O-(2-hydroxyethyl)rapamycin], the Crystal suspension result is recorded as “+++” in data set [2] (Acetone/Cyclohexane 10:90 (v/v)); “+/−” in data set [2] (Acetone/Cyclohexane 30:70 (v/v)); “+/−” in data set [2] (Acetone/Cyclohexane 40:60 (v/v)); “−−−” in data set [2] (Acetone/Cyclohexane 50:50 (v/v)); “−−−” in data set [2] (Acetone/Cyclohexane 60:40 (v/v)); “+++” in data set [2] (Acetone/Heptane 10:90 (v/v)). Further, the Crystal suspension entry in data set [2] (Acetone/Heptane 30:70 (v/v)) is given as “+/−”; in data set [2] (Acetone/Heptane 40:60 (v/v)), “+/−”; in data set [2] (Acetone/Heptane 50:50 (v/v)), “−−−”; in data set [2] (Acetone/Heptane 60:40 (v/v)), “−−−”; in data set [2] (Acetone/Hexane 10:90 (v/v)), “+++”; in data set [2] (Acetone/Hexane 30:70 (v/v)), “+/−”. The Crystal suspension result in data set [2] (Acetone/Hexane 40:60 (v/v)) was “+/−”; in data set [2] (Acetone/Hexane 50:50 (v/v)), “−−−”; in data set [2] (Acetone/Hexane 60:40 (v/v)) it was “−−−”; in data set [2] (Ethanol/Cyclohexane 10:90 (v/v)), “+++”; in data set [2] (Ethanol/Cyclohexane 40:60 (v/v)), “+/−”; in data set [2] (Ethanol/Cyclohexane 50:50 (v/v)), “−−−”. In addition, the Crystal suspension entry in data set [2] (Ethanol/Cyclohexane 60:40 (v/v)) is recorded as “−−−”; in data set [2] (Ethanol/Heptane 10:90 (v/v)), “+++”; in data set [2] (Ethanol/Heptane 40:60 (v/v)), “+/−”; in data set [2] (Ethanol/Heptane 50:50 (v/v)), “−−−”; in data set [2] (Ethanol/Heptane 60:40 (v/v)), “−−−”; in data set [2] (Ethanol/Hexane 10:90 (v/v)), “+++”. Also, the Crystal suspension entry in data set [2] (Ethanol/Hexane 40:60 (v/v)) is reported as “+/−”; in data set [2] (Ethanol/Hexane 50:50 (v/v)), “−−−”; in data set [2] (Ethanol/Hexane 60:40 (v/v)), “−−−”; in data set [2] (Ethyl acetate/Cyclohexane 10:90 (v/v)), “+++”; in data set [2] (Ethyl acetate/Cyclohexane 30:70 (v/v)), “+++”; in data set [2] (Ethyl acetate/Cyclohexane 40:60 (v/v)), “+++”. The Crystal suspension entry in data set [2] (Ethyl acetate/Cyclohexane 50:50 (v/v)) is “+/−”; in data set [2] (Ethyl acetate/Cyclohexane 60:40 (v/v)), “+/−”; in data set [2] (Ethyl acetate/Heptane 10:90 (v/v)) it was “+++”; in data set [2] (Ethyl acetate/Heptane 30:70 (v/v)), “+++”; in data set [2] (Ethyl acetate/Heptane 40:60 (v/v)), “+++”; in data set [2] (Ethyl acetate/Heptane 50:50 (v/v)), “+/−”. In addition, the Crystal suspension result in data set [2] (Ethyl acetate/Heptane 60:40 (v/v)) was “+/−”; in data set [2] (Ethyl acetate/Hexane 10:90 (v/v)), “+++”; in data set [2] (Ethyl acetate/Hexane 30:70 (v/v)), “+++”; in data set [2] (Ethyl acetate/Hexane 40:60 (v/v)), “+++”; in data set [2] (Ethyl acetate/Hexane 50:50 (v/v)), “+/−”; in data set [2] (Ethyl acetate/Hexane 60:40 (v/v)) it was “+/−”. The Crystal suspension result in data set [2] (iso-propanol/Cyclohexane 10:90 (v/v)) is on record as “+++”; in data set [2] (iso-propanol/Cyclohexane 30:70 (v/v)) it was “+/−”; in data set [2] (iso-propanol/Cyclohexane 40:60 (v/v)), “+/−”; in data set [2] (iso-propanol/Cyclohexane 50:50 (v/v)), “−−−”; in data set [2] (iso-propanol/Cyclohexane 60:40 (v/v)), “−−−”; in data set [2] (iso-propanol/Heptane 10:90 (v/v)), “+++”. The Crystal suspension entry in data set [2] (iso-propanol/Heptane 30:70 (v/v)) is given as “+/−”; in data set [2] (iso-propanol/Heptane 40:60 (v/v)), “+/−”; in data set [2] (iso-propanol/Heptane 50:50 (v/v)), “−−−”; in data set [2] (iso-propanol/Heptane 60:40 (v/v)) it was “−−−”; in data set [2] (iso-propanol/Hexane 10:90 (v/v)) it was “+++”; in data set [2] (iso-propanol/Hexane 30:70 (v/v)) it was “+/−”. Also, the Crystal suspension result is reported as “+/−” in data set [2] (iso-propanol/Hexane 40:60 (v/v)), “−−−” in data set [2] (iso-propanol/Hexane 50:50 (v/v)) and “−−−” in data set [2] (iso-propanol/Hexane 60:40 (v/v)).

As to `CC(C)c1ccccc1` [Cumol], the logKOW in data set [1] (setting [3]) is given as 3.4.

As to `Clc1ccccc1` [Chlorobenzene], in data set [1], the “log KOW” value was “about 2.9”. The logKOW in data set [1] (setting [3]) is on record as 2.9.

Regarding `Clc1ccccc1Cl` [o-Dichlorobenzene], the logKOW in data set [1] (setting [3]) is recorded as 3.4.

`CCCC(C)(C)C` [2,2-Dimethylpentane]: in data set [1] (setting [5]), the logKOW was 3.8.

(Values after patent US20230414839A1, “COATED MEDICAL PRODUCT” (HEMOTEQ AG, priority 2020, published 2023).)
